Assay results taken from publication PMC7288058, “Modulating the Properties of Fe(III) Macrocyclic MRI Contrast Agents by Appending Sulfonate or Hydroxyl Groups” (Molecules, 2020).
Several values for one entry are separate records, joined by “and”; a condition that tells them apart may be missing. Equal values may be shown once. Read-outs that look alike come from different tables or passages of the source.

Tests used:
[1] = cited from earlier work; for relaxivity: 4.7 T printed for Fe(EDTA) only
[2] = set-up: method as in PMID 31725934; conditions: comparison complex, no titration described in this paper; cited from earlier work
[3] = set-up: method as in PMID 31725934; conditions: 100 mM HCl, cited from earlier work
[4] = 'was reported', reference not given, cited from earlier work
Balb/c mice [5] = test: Dynamic T1-weighted MRI in mice after tail vein injection (4.7 T); type: in vivo; conditions: healthy mouse, 0.05 mmol/kg, kidneys/blood, up to 45 min
From the text: The two new Fe(III) complexes, Fe(L1)(OH2) and […], and the Gd(III) agent, Gd(DOTA), were studied in Balb/c mice on a small animal 4.7-T MRI scanner upon tail vein injection of the agent (Figure S24, Supplementary Materials). […] Biodistribution and pharmacokinetic clearance of the complexes in mice were monitored by using dynamic MRI.
In vivo imaging studies with the Fe(III) complexes were studied on at 4.7 T Bruker preclinical MRI in mice (BABC/cJ, Jackson Laboratory) in accordance with approved Institutional Animal Care and Use Committee (IACUC) protocols. The samples with a concentration of 0.050, 0.100, and 0.200 mmol [Fe]/kg. The Fe(III) complex stock solutions were adjusted to pH 7.2 by addition of meglumine and were injected intravenously via tail vein. MR data were recorded continuously for up to 1 h. Distribution studies and clearance kinetics were studied by using MR data acquired over several time points for up to 1 h, and additionally at 4 h and 24 h. For comparison, The Food and Drug Administration (FDA)-approved MRI contrast agent gadopentetate dimeglumine (Gd(DTPA), Magnevist®) and gadoterate meglumine (Gd(DOTA), Dotarem®) were injected at 50.0 μmol [Gd]/kg into separate group of mice and imaged as above.

Balb/c mice [6] = system: Balb/c mice; set-up: method as in PMID 31725934; conditions: cited from earlier work
[7] = set-up: method as in PMID 31725934; conditions: 1-octanol/water; cited from earlier work
[8] = target: T1, human serum albumin (HSA) (Homo sapiens, UniProt P02768); test: Binding to human serum albumin by ultrafiltration / ICP-MS; type: in vitro ADME; conditions: 0.4 mM complex, HSA 4.5% (w/v) (0.7 mM), 20 mM HEPES pH 7.4, 100 mM NaCl, 37 °C, 20 min
T1 construct: Albumin from human serum (fatty acid free) was purchased from Sigma-Aldrich; purchased Sigma-Aldrich; host or cells: purified from human serum
Experimental: Binding of the Fe(III) complexes to human serum albumin (HSA) was studied by using ultrafiltration across a MW 5000 cutoff membrane. The solutions containing HEPES buffer (pH 7.4) and salt NaCl were incubated at 37 °C for 20 min. Solutions contained 0.4 mM Fe(III) complex and 4.5 % (w/v) HSA (0.7 mM). The binding percentages were measured by using ICP-MS to analyze the Fe concentration in the unbound complex solutions after HSA incubation (Table 1). The protein binding for Fe(L3)(OH2) was higher (75%) than for Fe(L1)(OH2) (37%) or Fe(L2) (11%).
The molecular weight of 66,435 Da was used to determine the molar concentrations of HSA. Fe(III) complex (0.400 mM) solutions were incubated with 4.5% (w/v) HSA in 0.100 M NaCl and 20.0 mM HEPES buffer (pH 7.4). All solutions were incubated at 37 °C for 20 min [42]. Aliquots (0.300 mL) were placed in ultra-centrifugal filter units with a 5-kDa membrane and centrifuged at 3500× g for 10 min. The filtrates were used to determine Fe concentration from digested unbound Fe(III) complexes by using ICP-MS.

T1 sequence (P02768 25-609): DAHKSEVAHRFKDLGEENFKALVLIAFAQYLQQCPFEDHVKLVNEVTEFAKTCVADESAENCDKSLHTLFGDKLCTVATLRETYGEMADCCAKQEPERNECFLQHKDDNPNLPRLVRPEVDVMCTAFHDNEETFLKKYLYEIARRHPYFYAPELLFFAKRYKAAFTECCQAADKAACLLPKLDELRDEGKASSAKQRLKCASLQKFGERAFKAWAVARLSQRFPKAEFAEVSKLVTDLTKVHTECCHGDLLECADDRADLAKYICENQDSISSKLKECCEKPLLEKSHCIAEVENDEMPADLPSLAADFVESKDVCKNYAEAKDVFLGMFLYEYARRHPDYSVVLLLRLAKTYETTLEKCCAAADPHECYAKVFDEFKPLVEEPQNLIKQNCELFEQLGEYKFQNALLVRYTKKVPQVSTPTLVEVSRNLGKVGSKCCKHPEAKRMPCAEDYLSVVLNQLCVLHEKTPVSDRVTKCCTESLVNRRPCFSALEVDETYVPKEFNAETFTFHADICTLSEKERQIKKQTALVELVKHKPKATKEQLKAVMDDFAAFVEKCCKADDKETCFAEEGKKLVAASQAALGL

Q: With `O=C([O-])CN(CCN(CC(=O)[O-])CC(=O)[O-])CCN(CC(=O)[O-])CC(=O)[O-].[Fe+3]` [Fe(DTPA)] as the compound, how does the relaxivity [1] read?
A: 0.51 mM⁻¹ s⁻¹

Q: With `O=C([O-])CN(CCN(CC(=O)[O-])CC(=O)[O-])CC(=O)[O-].[Fe+3]` [Fe(EDTA)] as the compound, how does the relaxivity [1] read?
A: 1.4 mM⁻¹ s⁻¹

Q: What does the source list for `C[C@H]([O-])CN1CCN(Cc2ccccc2)CCN(C[C@H](C)O)CC1.O.[Fe+3]` [Fe(L3)(OH2)]?
A: Log K1 (pKa2) [2]: 7.17 ± 0.01; dissociation in acidic solution ([3]; over 24 h): 14%; dissociation in acidic solution ([3]; over 72 h): 38%; r2 4.7 T ([1]; 4.7 T): 4.5 ± 1.1 mM⁻¹ s⁻¹; r1 4.7 T ([1]; buffer, pH 7.4, 37 °C, 4.7 T): 2.2 mM⁻¹ s⁻¹ and 2.2 ± 0.30 mM⁻¹ s⁻¹; r1 in HSA 4.7 T ([1]; in HSA, 4.7 T): 2.5 ± 0.10 mM⁻¹ s⁻¹; r2 in HSA 4.7 T ([1]; in HSA, 4.7 T): 4.2 ± 0.70 mM⁻¹ s⁻¹; electrode potential (E1/2) vs. Ag/AgCl ([4]; pH 3): 112 mV; electrode potential (E1/2) vs. NHE ([4]; pH 3): 400 mV; electrode potential (E1/2) vs. Ag/AgCl ([4]; pH 7): −588 mV; electrode potential (E1/2) vs. NHE ([4]; pH 7): −300 mV; T1-weighted contrast enhancement compared with other agents (Balb/c mice [5]): much stronger than that of Fe(L1)(OH2) or Gd(DOTA); duration of enhanced kidney contrast (Balb/c mice [6]): up to four hours; Log P [7]: −0.13; HSA Binding (%) [8]: 75% and 75.1 ± 3.7%

Q: Which “r1 4.7 T” value ([1]; 4.7 T) does the source give for `CNC[C@H](O)[C@@H](O)[C@H](O)[C@H](O)CO.O=C([O-])CN1CCN(CC(=O)[O-])CCN(CC(=O)O)CCN(CC(=O)[O-])CC1.[Gd+3]` [Gd(DOTA), gadoterate meglumine] here?
A: 2.8 ± 0.10 mM⁻¹ s⁻¹

Q: And the “r2 4.7 T” value ([1]; 4.7 T)?
A: 3.7 ± 0.20 mM⁻¹ s⁻¹

Q: Which “r1 9.4 T” value ([1]; 9.4 T) does the source give for `CNC[C@H](O)[C@@H](O)[C@H](O)[C@H](O)CO.CNC[C@H](O)[C@@H](O)[C@H](O)[C@H](O)CO.O=C([O-])CN(CCN(CC(=O)[O-])CC(=O)O)CCN(CC(=O)[O-])CC(=O)O.[Gd+3]` [Gd(DTPA), gadopentetate dimeglumine] here?
A: 2.5 mM⁻¹ s⁻¹

Q: And the “r1 4.7 T” value ([1]; buffer, pH 7.4, 37 °C, 4.7 T)?
A: 3.1 mM⁻¹ s⁻¹

Q: And the “r1 in HSA 4.7 T” value ([1]; in HSA, 4.7 T)?
A: 3.2 mM⁻¹ s⁻¹
